The record followed here is patent US11667602B2, “Compounds and their use” (AstraZeneca AB, priority 2020, dated 2023).

Where two headings read alike, the source gives them in different places.

In the experiment the target is T1, human RXFP1 (Homo sapiens, UniProt Q9HBX9).
T1 sequence (Q9HBX9 1-757): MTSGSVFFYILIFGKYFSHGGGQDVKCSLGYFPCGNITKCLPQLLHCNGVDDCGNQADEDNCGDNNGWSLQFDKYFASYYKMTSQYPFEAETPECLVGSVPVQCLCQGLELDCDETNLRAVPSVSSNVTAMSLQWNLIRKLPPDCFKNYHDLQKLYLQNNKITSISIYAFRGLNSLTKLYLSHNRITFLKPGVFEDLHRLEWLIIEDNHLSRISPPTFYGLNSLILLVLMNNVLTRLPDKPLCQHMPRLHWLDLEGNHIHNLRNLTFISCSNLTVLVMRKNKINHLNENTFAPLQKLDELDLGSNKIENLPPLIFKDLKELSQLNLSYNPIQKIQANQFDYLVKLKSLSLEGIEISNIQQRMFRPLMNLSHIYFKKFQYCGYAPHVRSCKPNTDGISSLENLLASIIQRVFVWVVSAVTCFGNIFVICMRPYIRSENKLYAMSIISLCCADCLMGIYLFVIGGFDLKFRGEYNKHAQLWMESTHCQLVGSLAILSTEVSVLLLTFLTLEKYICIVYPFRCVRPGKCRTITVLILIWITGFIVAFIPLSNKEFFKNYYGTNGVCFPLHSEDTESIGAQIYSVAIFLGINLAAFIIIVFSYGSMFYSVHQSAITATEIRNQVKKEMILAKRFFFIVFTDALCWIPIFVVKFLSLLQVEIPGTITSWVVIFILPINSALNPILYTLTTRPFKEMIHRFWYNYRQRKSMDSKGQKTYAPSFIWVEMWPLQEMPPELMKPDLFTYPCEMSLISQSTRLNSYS
The experiment can be described thus: RXFP1 Hu cAMP (Test A). The arrangement: expressed in transfected cells; host or cells: Jump-In T-REx CHO-K1 cells (ThermoFisher), induced with 10 ng/ml doxycycline for 24 h. It counts as cell-based. An outline of the steps: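 CHO-K1 (Jump-In T-REx), RXFP1 induced w/ 10 ng/ml doxycycline 24 h, cryopreserved. 0.5 mM IBMX final. cAMP by HTRF, 2 h RT, std curve.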

Setting [1] is: RXFP1 Hu cAMP, read-out: Test A EC50.

One may read the EC50 as the concentration giving half of the maximal effect.

Take `CCC(C)(C)NC(=O)[C@H]1[C@@H]2CC[C@@H](C2)[C@H]1NC(=O)c1cc(O[C@H]2CC[C@@](C)(C(=O)O)CC2)c(C#N)cc1OC` [Example 126]: where the note is “RXFP1 Hu cAMP”, the “Test A Sinf” value was determined as 98%. Besides, the EC50 under setting [1] came out at 47 nM. As to `COc1cc(F)c(OC2CCC(O)(C(=O)O)CC2)cc1C(=O)NC1C2CCC(C2)C1C(=O)Nc1cccc(S(=O)(=O)C(F)(F)F)c1` [Example 582, (1R,4r)-4-(2-Fluoro-4-methoxy-5-(((1R*,2R*,3S*,4S*)-3-((3-((trifluoromethyl)sulfonyl)phenyl)carbamoyl)bicyclo[2.2.1]heptan-2-yl)carbamoyl)phenoxy)-1-hydroxycyclohexane-1-carboxylic acid], the “Test A Sinf” value (RXFP1 Hu cAMP) turned out to be 104%. Moreover, the EC50 under setting [1] turned out to be 29 nM. On to `COc1ccc(Oc2ccc(C(=O)O)cc2)cc1C(=O)N[C@H]1[C@@H](C(=O)Nc2cccc(S(=O)(=O)C(F)(F)F)c2)[C@@H]2C=C[C@H]1C2` (racemic) [Example 427], for which, for the setting “RXFP1 Hu cAMP”, the “Test A Sinf” value was 86%. For the same molecule, the EC50 under setting [1] is 680 nM. As to `COc1cc(F)c(O[C@H]2CC[C@@](C)(C(=O)O)CC2)cc1C(=O)N[C@@H]1CCCO[C@@H]1C(=O)Nc1cccc(S(=O)(=O)C(F)(F)F)c1` [Example 357], the “Test A Sinf” value (RXFP1 Hu cAMP) was 101%. Also, under setting [1], the EC50 stood at 5400 nM. Consider `COc1cc(F)c(OC2CCCC(C(=O)O)C2)cc1C(=O)N[C@@H]1[C@H]2CC[C@H](C2)[C@@H]1C(=O)Nc1cccc(S(=O)(=O)C(F)(F)F)c1` (single isomer, unassigned) [Example 446], for which the “Test A Sinf” value (RXFP1 Hu cAMP) was determined as 98%. Besides, under setting [1], the concentration for a half-maximal effect (EC50) is 900 nM.

Consider `COc1cc(F)c(O[C@H]2CC[C@@](C)(C(=O)O)CC2)cc1C(=O)NC1CC(OC)CC1C(=O)NCC(C)(C)C` (single isomer, unassigned) [Example 546, (1R,4s)-4-(2-Fluoro-4-methoxy-5-(((1S*,2R*,4R*)-4-methoxy-2-(neopentylcarbamoyl)cyclopentyl)carbamoyl)phenoxy)-1-methylcyclohexane-1-carboxylic acid], for which the EC50 under setting [1] was over 40000 nM. As to `CC1(CNC(=O)[C@H]2[C@@H]3CC[C@@H](C3)[C@H]2NC(=O)c2ccc(F)c(O[C@H]3CC[C@@](C)(C(=O)O)CC3)c2)CCC1` [Example 400], the “Test A Sinf” value (RXFP1 Hu cAMP) was determined as 91%. Under “Test A EC50, RXFP1 Hu cAMP”, this molecule had a concentration for a half-maximal effect (EC50) of 180 nM. Turning to `COc1cc(F)c(OC[C@H]2CC[C@@H](C(=O)O)CC2)cc1C(=O)N[C@@H]1[C@H]2CC[C@H](C2)[C@@H]1C(=O)Nc1cccc(S(=O)(=O)C(F)(F)F)c1` [Example 440], the “Test A Sinf” value (RXFP1 Hu cAMP) is 111%. For the same molecule, the 50% effective concentration (EC50) under setting [1] is 1200 nM. Consider `COc1cc(F)c(O[C@H]2CC[C@](C)(CC(=O)O)CC2)cc1C(=O)N[C@@H]1[C@H]2CC[C@H](C2)[C@@H]1C(=O)NCC1(C)CCC1` [Example 477, 2-((1R,4r)-4-(2-Fluoro-4-methoxy-5-(((1S,2R,3S,4R)-3-(((1-methylcyclobutyl)methyl)carbamoyl)bicyclo[2.2.1]heptan-2-yl)carbamoyl)phenoxy)-1-methylcyclohexyl)acetic acid], for which the “Test A Sinf” value (RXFP1 Hu cAMP) is on record as 84%. For the molecule `COc1cc(F)c(-c2ccc(C(=O)O)cc2)cc1C(=O)N[C@@H]1[C@@H]2CC[C@@H](C2)[C@@H]1C(=O)Nc1cccc(S(=O)(=O)C(F)(F)F)c1` (racemic) [Example 303], the “Test A Sinf” value (RXFP1 Hu cAMP) amounted to 114%. Under setting [1], the EC50 was found to be 260 nM. `COc1cc(F)c(-c2ccc(OCC(=O)O)cc2)cc1C(=O)N[C@@H]1[C@H]2CC[C@H](C2)[C@@H]1C(=O)NCC(C)(C)C` [Example 330, 2-((2′-Fluoro-4′-methoxy-5′-(((1S,2R,3S,4R)-3-(neopentylcarbamoyl)bicyclo[2.2.1]heptan-2-yl)carbamoyl)-[1,1′-biphenyl]-4-yl)oxy)acetic acid]: the “Test A Sinf” value (RXFP1 Hu cAMP) turned out to be 97%. The EC50 under setting [1] amounted to 530 nM. Consider `COc1cc(F)c(-c2ccccc2CC(=O)O)cc1C(=O)N[C@H]1[C@@H](C(=O)Nc2cccc(S(=O)(=O)C(F)(F)F)c2)[C@@H]2C=C[C@H]1C2` (racemic) [Example 235], for which the “Test A Sinf” value (RXFP1 Hu cAMP) was 75%.
